The numbers were not newly measured in the CATMoS acute toxicity set (Mansouri et al. 2021), which cites them from elsewhere.

“And” between values parts separate entries of the source, which are not always exact repeats. Equal entries are not always repeated.

A short description of the series: rat acute oral toxicity. The following applies: in vivo.
Take `OC1CCc2ccccc21` (stereo not drawn): the LD50 is 620 mg/kg.
Regarding `CC(C)=CC1C(C(=O)OC2CC(=O)C(C3C=CCC3)=C2C)C1(C)C` (stereo not drawn), the LD50 was 1410 mg/kg.
With `CN1CCC2(C)c3cc(OC(=O)NCCCCCCCCN4CCOCC4)ccc3N(C)C12` (stereo not drawn), the LD50 was 23 mg/kg.
Turning to `CC(=O)Nc1cccc(N=Nc2ccc(N(C)C)cc2)c1`, the LD50 was 5910 mg/kg.
With `CN=C(O)O/N=C1/SCOC1(C)C`, the median lethal dose (LD50) was 2 mg/kg.
As to `CS(=O)(=O)c1nnc(C(F)(F)F)s1`, the LD50 was 312 mg/kg.
With `O=C1C(CCSc2ccccc2)C(=O)N(c2ccccc2)N1c1ccccc1`, the LD50 is 450 mg/kg.
On to `COP(=O)(OC)Oc1ccc([N+](=O)[O-])c(C)c1`, for which the LD50 is 24 mg/kg.
For the compound `COc1ccc(NC(=O)N(C)C)cc1Cl`, the LD50 was 1600 mg/kg.
Regarding `CCOCCOCCCO`, the LD50 is 7060 mg/kg.
`CCCCOP(=O)(OCCO)OCCCC`: the LD50 was 915 mg/kg.
Take `O=C(O)CCC(=O)OC1CCCCC1`: the LD50 was 6500 mg/kg.
In the case of `CCC(O)OC(C)(C)C` (stereo not drawn), the LD50 was 2520 mg/kg.
In the case of `Cc1ccc(S(=O)(=O)Cl)cc1`, the LD50 is 4680 mg/kg.
Regarding `CCN(CC)CCCC(C)Nc1c2cc(Cl)ccc2nc2ccc(OC)cc12` (stereo not drawn), the LD50 is 4400 mg/kg.
For the compound `CC1CN1P(=O)(N1CC1C)N1CC1C` (stereo not drawn), the LD50 is 136 mg/kg.
With `CCOC(=O)C1=CN(C(=O)c2ccccc2)C2CCCC(C)N2C1=O` (stereo not drawn), the LD50 is 1640 mg/kg.
In the case of `CC(=O)C1=C(O)[C@@H]2[C@H]3c4c[nH]c5cccc(c45)C[C@H]3C(C)(C)N2C1=O`, the LD50 is 36 mg/kg.
For the compound `ClCc1cccc(Oc2ccccc2)c1`, the LD50 was 1220 mg/kg.
As for `CC(C)CCCCCCO`, the LD50 is 2980 mg/kg.
With `CCOP(=O)(OCC)OC(=C(Cl)Cl)c1ccc(Cl)cc1Cl`, the LD50 is 30.2 mg/kg.
`O=C(O)c1cc(O)cc(C(=O)O)c1`: the LD50 is 11200 mg/kg.
`C[N+]12CCC(c3ccccc3)(CC1)C(=O)C2`: the LD50 was 1480 mg/kg.
Consider `C=CCN(CC=C)C(=O)CSP(=S)(OCC)OCC`, for which the LD50 is 48 mg/kg.
For the compound `Cc1oc(=O)oc1COC(=O)[C@@H]1N2C(=O)[C@@H](NC(=O)[C@H](N)c3ccccc3)[C@H]2SC1(C)C`, the LD50 is 10000 mg/kg.
Take `NCc1cc(O)no1`: the LD50 is 45 mg/kg.
Turning to `CC(Oc1ccc(Oc2ccc(Cl)cc2)cc1)C(=O)O` (stereo not drawn), the LD50 was 1200 mg/kg.
Regarding `CC(C)=CC1C(C(=O)Cl)C1(C)C` (stereo not drawn), the median lethal dose (LD50) is 400 mg/kg.
For the compound `CCOP(=O)(O)C(N)=O`, the LD50 was 10100 mg/kg.
For the compound `S=P(N1CC1)(N1CC1)N1CC1`, the LD50 was 23 mg/kg.
With `C/C=C1\[C@H]2C=C(C)C[C@]1(N)c1ccc(=O)[nH]c1C2`, the LD50 was 15 mg/kg.
`CN=NNc1ccc(I)cc1`: the LD50 was 499 mg/kg.
Turning to `Cc1cccc(NC(N)=O)c1`, the LD50 was 1330 mg/kg.
As to `N#CC(Cl)(Cl)Cl`, the LD50 is 250 mg/kg.
In the case of `C=CCNC(N)=S`, the LD50 was 200 mg/kg.
`Cc1cccc2c1C(=O)C(c1c(Cl)cccc1Cl)C2=O` (stereo not drawn): the LD50 is 466 mg/kg.
For the compound `COc1ccc(O)cc1`, the LD50 is 1600 mg/kg.
As to `CCCCCCCCCCOC(=O)C[N+](C)(C)CCSCC[N+](C)(C)CC(=O)OCCCCCCCCCC`, the median lethal dose (LD50) is 2660 mg/kg.
Consider `CN1CCN(CCCCOc2ccccc2C=Cc2ccccc2)CC1`, for which the LD50 was 2300 mg/kg.
`CCOP(=O)(OCC)Oc1ccc([N+](=O)[O-])cc1`: the median lethal dose (LD50) is 1.8 mg/kg.
In the case of `CC1(C)COC(c2ccccc2)CN1` (stereo not drawn), the 50% lethal dose (LD50) is 450 mg/kg and 480 mg/kg.
Regarding `CN(C)C(=O)Nc1cccc(OC(=O)NC(C)(C)C)c1`, the LD50 is 3000 mg/kg.
Consider `CS(=O)C(C)(C)CO` (stereo not drawn), for which the LD50 is 11300 mg/kg.
As for `COc1ccc2c(c1)OC(C)(C)C(c1ccccc1)=C2c1ccc(OCCN2CCCC2)cc1`, the LD50 was 150 mg/kg.
Turning to `COCc1ccc(-c2ccc(COC)cc2)cc1`, the LD50 was 1370 mg/kg.
On to `Cc1cc(C)cc(Cc2ccccc2)c1`, for which the LD50 was 2330 mg/kg.
In the case of `Cc1cc(Cl)ccc1NC=O`, the LD50 is 564 mg/kg.
As for `CN(C)CCC=C1c2ccccc2CS(=O)c2sccc21` (stereo not drawn), the LD50 was 319 mg/kg.
For `CCC1(CCC(C)C)C(=O)N=C(O)NC1=O` (stereo not drawn), the LD50 is 275 mg/kg.
On to `C=C[Si](OCCOC)(OCCOC)OCCOC`, for which the LD50 is 2960 mg/kg.
`O=[N+]([O-])c1cc2nc(C(F)(F)F)[nH]c2cc1[N+](=O)[O-]`: the LD50 was 15.2 mg/kg.
With `CC(C)(C)c1ccc(OP2OCC3(CO2)COP(Oc2ccc(C(C)(C)C)cc2C(C)(C)C)OC3)c(C(C)(C)C)c1` (stereo not drawn), the LD50 is 5580 mg/kg.
In the case of `Nc1ccc(C=Cc2ccc([N+](=O)[O-])cc2S(=O)(=O)O)c(S(=O)(=O)O)c1`, the LD50 is 14200 mg/kg.
As to `COC(=O)Nc1nc2ccccc2[nH]1`, the LD50 was 6400 mg/kg and 12500 mg/kg and 7500 mg/kg.
Consider `C=CCC(C(=O)NC(N)=O)C(C)C` (stereo not drawn), for which the LD50 is 1050 mg/kg.
Consider `OCC1CCC(CO)CC1` (stereo not drawn), for which the LD50 is 3200 mg/kg.
Consider `O=C(O)c1ccccc1OP(=O)(O)O`, for which the LD50 is 1100 mg/kg.
On to `COc1cc(Cc2cnc(N)nc2N)cc(OC)c1OC`, for which the LD50 was 200 mg/kg.
Turning to `Cc1cc(O)c(C)c(C)c1O`, the LD50 was 3200 mg/kg.
Consider `COC1CC=C2CCN3CCC4=C(CC(=O)OC4)C23C1` (stereo not drawn), for which the LD50 was 320 mg/kg.
For the compound `CCCC(CCC)C(N)=O`, the LD50 was 890 mg/kg.
With `CCOP(=O)(OCC)SCSP(=O)(OCC)OCC`, the LD50 is 12.8 mg/kg.
Regarding `C=C1/C(=C\C=C2/CCC[C@]3(C)[C@@H]([C@H](C)/C=C/[C@H](C)C(C)C)CC[C@@H]23)C[C@@H](O)C[C@@H]1O`, the LD50 was 3.5 mg/kg.
On to `CCCCCN(CCCCC)N=O`, for which the LD50 was 1750 mg/kg.
Take `CC(C)c1ccc(N)cc1`: the LD50 is 985 mg/kg.
For `CN1CCCCC1C(CO)(c1ccccc1)c1ccccc1` (stereo not drawn), the LD50 was 410 mg/kg.
As for `COP(=S)(OC)SCn1nc(-c2ccccc2)ccc1=O`, the LD50 was 18800 mg/kg.
Regarding `CN(Cc1ccccc1)N=O`, the LD50 is 18 mg/kg.
On to `CCOC(=O)C1=C(C)NC(C)=C(C(=O)OCC)C1c1ccccc1C(F)(F)F`, for which the LD50 is 1220 mg/kg.
Take `Cc1c(Nc2ncnc3ccccc23)c(=O)n(C)n1-c1ccccc1`: the LD50 is 369 mg/kg.
As for `CN(C)c1ccc(O)cc1`, the LD50 is 689 mg/kg.
Consider `CCc1nc(N)nc(N)c1-c1ccccc1`, for which the LD50 is 126 mg/kg.
In the case of `ClCC1(CCl)COC1`, the LD50 was 600 mg/kg.
With `CCOC(=S)C=Cc1ccc(Cl)cc1`, the LD50 was 950 mg/kg.
Take `CCCCCCCCc1ccc(-c2ccccc2)cc1`: the LD50 was 2400 mg/kg.
As for `CCNC1=Nc2ccc(Cl)cc2C(C)(c2ccccc2)O1` (stereo not drawn), the LD50 is 1500 mg/kg.
Turning to `CCOP(=S)(OCC)SCCC(F)=C(F)F`, the LD50 is 681 mg/kg.
For `CCCCCCCCCCCCCCCCCCP(=O)(OC)OC`, the LD50 was 15400 mg/kg.
For `COC(=O)/C=C(/CC(=O)OC)OP(=O)(OC)OC`, the LD50 is 31 mg/kg.
Consider `CNC(=O)Oc1cc(C)cc(C(C)C)c1`, for which the LD50 was 35 mg/kg.
As for `CCn1cc(C(=O)O)c(=O)c2cc(F)c(N3CCN(C)CC3)cc21`, the LD50 is 2500 mg/kg.
In the case of `CCCCCCCCCCCC[N+](C)(C)Cc1ccc(CC)cc1`, the LD50 is 700 mg/kg.
For `CCn1cc(C(=O)O)c(=O)c2cc3c(cc21)OCO3`, the LD50 is 525 mg/kg.
As to `Clc1ccc(C(Cn2ccnc2)OCc2ccsc2Cl)c(Cl)c1` (stereo not drawn), the LD50 is 770 mg/kg.
Consider `C1CN(SSSSN2CCOCC2)CCO1`, for which the LD50 is 4800 mg/kg.
For the compound `Cn1cc(C(=O)[C@@H]2CCc3[nH]cnc3C2)c2ccccc21`, the LD50 is 1260 mg/kg.
Turning to `Cc1cc(=S)c(N)n[nH]1`, the LD50 is 1980 mg/kg.
Turning to `COc1c(OP(=S)(Oc2cnn(C)c(=O)c2OC)OC(C)C)cnn(C)c1=O`, the LD50 was 100 mg/kg.
